Where two headings read alike, the source gives them in different places. Values belong to the compound of their own block, whether it stands above or below them.
Legend:
L. (L.) major = test system: L. (L.) major; design: method as in PMID 9501844; conditions: read-out: IC50 against L. (L.) major; cited from earlier work
L. (L.) amazonensis = test system: L. (L.) amazonensis; design: method as in PMID 9501844; conditions: read-out: IC50 against L. (L.) amazonensis; cited from earlier work
[1] = test system: L. (L.) infantum promastigotes; assay: Mitochondrial membrane potential, MitoTracker Red; type: cell-based, Leishmania (L.) infantum; conditions: for reduction of MitoTracker Red fluorescence levels relative to untreated parasites: 20 μM, 60 minutes, p < 0.05
Procedure: L. […] Then MitoTracker® Red CM-H2XROS (500 nM) was added and the incubation was continued for 40 minutes in the dark. […] Nitazoxanide (60 μg/mL) was used as a positive control and untreated promastigotes were used as negative control.

[2] = test system: L. (L.) infantum promastigotes; conditions: not told
Procedure: L. (L.) infantum promastigotes were washed with PBS, deposited on a 96-well microplate (2 × 10^6 parasites/well) and incubated with SYTOX® Green (1 μM) for 15 minutes at 24°C [10]. Amlodipine and fendiline were added at 20 μM and the fluorescence was measured up to 60 minutes. The fluorescence intensity was determined using a fluorimetric microplate reader (FilterMax F5 Multi-Mode Microplate Reader-Molecular Devices) with excitation and emission wavelengths of 485 and 520 nm, respectively. Triton X-100 (0.1%) was used as positive control and untreated promastigotes were used as negative control.

[3] = test system: L. (L.) infantum promastigotes; assay: Reactive oxygen species (ROS), H2DCF-DA; type: cell-based, Leishmania (L.) infantum; conditions: for regulation of ROS content compared to untreated parasites: amlodipine, fendiline 20 μM, 60 minutes
Procedure: L. (L.) infantum promastigotes (2 × 10^6 cells/well) were washed in HBSS medium and incubated with amlodipine or fendiline (20 μM) for 60 minutes at 24°C. To these cells 2′,7′-dichlorodihydrofluorescein diacetate (H2DCf-DA) was added (5 μM) and incubation was prolonged for 15 minutes. […] Nitazoxanide (60 μg/mL) was used as positive control and untreated promastigotes were used as negative control.

[4] = test system: L. (L.) infantum promastigotes; assay: Antileishmanial activity against promastigotes, MTT assay; type: cell-based, Leishmania (L.) infantum; conditions: 24 hours at 24°C, highest concentration 100 μM; for IC50: Leishmania infantum, read-out: IC50 ± SD, L. (L.) infantum promastigotes
Procedure: (§1) Promastigotes of L. (L.) amazonensis (WHO/BR/00/LT0016), L. (V.) braziliensis (MHO/BR/75/M2903), and L. (L.) infantum (MHOM/BR/1972/LD) [synonymous with L. (L.) chagasi] were maintained in M199 medium supplemented with 10% calf serum and 0.25% hemin at 24°C. L. (L.) infantum amastigotes were obtained from the spleen of infected hamster by differential centrifugation at the 60–70th days after infection. Macrophages were collected from the peritoneal cavity of BALB/c mice by washing with RPMI-1640 medium supplemented with 10% fetal calf serum and were maintained at 37°C in a 5% CO2 humidified incubator. Trypanosoma cruzi trypomastigotes (Y strain) were maintained in LLC-MK2 (ATCC CCL 7) cells using RPMI-1640 medium supplemented with 2% calf serum at 37°C in a 5% CO2 humidified incubator.
(§2) To determine the 50% inhibitory concentration (IC50) against Leishmania promastigotes, the drugs were dissolved in DMSO and diluted with M199 medium in 96-well microplates, with 100 μM as the highest concentration. Each drug was tested twice at eight concentrations prepared in twofold dilutions. Promastigotes were counted in a Neubauer hemocytometer and seeded at 1 × 10^6 parasites/well with a final volume of 150 μL. Controls with DMSO and without drugs were performed. Pentamidine was used as a standard drug. The plate was incubated for 24 hours at 24°C and the viability of promastigotes was verified by the MTT assay. Briefly, MTT (5 mg/mL) was dissolved in PBS, sterilized through 0.22 μm membrane and 20 μL/well was added, for 4 hours at 24°C. Promastigotes were incubated without compounds and used as a viability control. Formazan extraction was performed using 10% SDS for 18 hours (80 μL/well) at 24°C, and the optical density was determined in a Multiskan MS (UNISCIENCE) plate reader at 550 nm. The 100% viability was expressed based on the optical density of control promastigotes, after normalization. […] Plates were incubated at 37°C in a 5% CO2 humidified incubator for 24 hours. L. (L.) infantum amastigotes extracted from spleens and separated by differential centrifugation were added to macrophages at a ratio of 10 : 1 (amastigotes : macrophage). After 24 hours, extracellular parasites were removed by washing, fresh medium containing the drugs and controls was added, and the cells were incubated at 37°C for a period of 120 hours. Further medium changes with fresh drugs were carried out after 72 hours. At the end of the assay, the slides were stained with Giemsa and observed using light microscopy. Glucantime was used as a standard drug. The IC50 was determined by the number of infected macrophages in 400 cells.

[5] = test system: L. (L.) amazonensis promastigotes; assay: as above; type: cell-based, Leishmania (L.) amazonensis; conditions: 24 hours at 24°C, highest concentration 100 μM; for IC50: Leishmania amazonensis, read-out: IC50 ± SD, L. (L.) amazonensis promastigotes
Procedure: as §1, §2

[6] = test system: L. (L.) infantum intracellular amastigotes; assay: Activity against intracellular amastigotes in peritoneal macrophages, Giemsa staining and light microscopy; type: cell-based, Leishmania (L.) infantum; conditions: for IC50 ± SD, L. (L.) infantum amastigotes / IC50: intracellular amastigotes in BALB/c peritoneal macrophages, 120 hours; for IC50: read-out: IC50 ± SD, L. (L.) infantum amastigotes; for Selectivity Index (SI), L. (L.) infantum amastigotes: ratio between cytotoxicity to LLC-MK2 cells and antiparasitic activity
Procedure: as §1, §2

T. cruzi trypomastigotes = assay: Antitrypanosomal activity, MTT assay; type: cell-based, Trypanosoma cruzi; conditions: for IC50 ± SD, T. cruzi trypomastigotes / IC50: 24 hours at 37°C, highest concentration 100 μM; for IC50: read-out: IC50 ± SD, T. cruzi trypomastigotes; for Selectivity Index (SI), T. cruzi trypomastigotes: ratio between cytotoxicity to LLC-MK2 cells and antiparasitic activity
Procedure: as §1
To determine the IC50 against T. cruzi trypomastigotes, drugs were dissolved in DMSO and diluted with RPMI-1460 medium in 96-well microplates, with the highest concentration at 100 μM. Trypomastigotes obtained from LLC-MK2 cultures were counted in a Neubauer hemocytometer and seeded at 1 × 10^6 parasites/well in 96-well microplates. Test drugs were incubated for 24 hours at 37°C in a 5% CO2 humidified incubator and the viability of trypomastigotes was verified by the MTT assay as described above. Benznidazole was used as a standard drug.

[7] = Cytotoxicity in mammalian cells, MTT assay; type: cell-based; conditions: rhesus monkey, LLC-MK2 cells; 48 hours at 37°C; read-out: IC50 ± SD, LLC-MK2 cytotoxicity
Procedure: LLC-MK2 were seeded at 5 × 10^4 cells/well in 96-well microplates and incubated with drugs with 200 μM as the highest concentration, for 48 hours at 37°C in a 5% CO2 humidified incubator. The viability of the cells was determined by the MTT assay as described above. Control cells were incubated in the presence of DMSO and without drugs. Viability of 100% was expressed based on the optical density of control LLC-MK2 cells, after normalization. The Selectivity Index (SI) was given by the ratio between the cytotoxicity in LLC-MK2 cells and the antiparasitic activity.

[8] = test system: Leishmania spp. promastigotes; assay: Antileishmanial activity against promastigotes of all species tested, MTT assay; type: cell-based; conditions: range over the Leishmania species tested
Procedure: as §1
To determine the 50% inhibitory concentration (IC50) against Leishmania promastigotes, the drugs were dissolved in DMSO and diluted with M199 medium in 96-well microplates, with 100 μM as the highest concentration. Each drug was tested twice at eight concentrations prepared in twofold dilutions. Promastigotes were counted in a Neubauer hemocytometer and seeded at 1 × 10^6 parasites/well with a final volume of 150 μL. Controls with DMSO and without drugs were performed. Pentamidine was used as a standard drug. […]

[9] = test system: L. (V.) braziliensis promastigotes; assay: Antileishmanial activity against promastigotes, MTT assay; type: cell-based, Leishmania (V.) braziliensis; conditions: 24 hours at 24°C, highest concentration 100 μM; for IC50: Leishmania, read-out: IC50 ± SD, L. (V.) braziliensis promastigotes
Procedure: as §1, §2

T. cruzi epimastigotes = test system: T. cruzi epimastigotes; design: method as in PMID 9457486; conditions: in vitro; read-out: IC50 against T. cruzi epimastigotes; cited from earlier work
[10] = Leishmania infantum, Peritoneal macrophage, in Mus musculus, 120 h

Compound: Nc1ccncc1 [4-aminopyridine]
IC50 (L. (L.) major): > 400 µM
IC50 (L. (L.) amazonensis): 46 µM

Compound: CCOC(=O)C1=C(COCCN)NC(C)=C(C(=O)OC)C1c1ccccc1Cl (stereo not drawn) [Amlodipine, amlodipine]
reduction of MitoTracker Red fluorescence levels relative to untreated parasites [1]: 7%
plasma membrane permeability (SYTOX Green fluorescence) [2]: no interference on the plasma membrane permeability
ROS levels, fold higher compared to fendiline ([3]; 20 μM): ~3 fold
upregulation of ROS, fold higher than nitazoxanide ([3]; amlodipine 20 μM, nitazoxanide 60 μg/mL): 1.99 fold
regulation of ROS content compared to untreated parasites ([3]; nitazoxanide 60 μg/mL): intense and significant (p < 0.05) upregulation of ROS content

IC50 ± SD, L. (L.) infantum amastigotes [6]: ne^b
IC50 ± SD, T. cruzi trypomastigotes (T. cruzi trypomastigotes): ne^b
IC50 ± SD, T. cruzi trypomastigotes (T. cruzi trypomastigotes; listed as amrinone): inactive
Compound: Nc1cc(-c2ccncc2)c[nH]c1=O [Amrinone]
IC50 ± SD, L. (L.) infantum promastigotes [4]: ne^b
IC50 ± SD, L. (L.) amazonensis promastigotes [5]: ne^b
IC50 at 48 h [7]: > 500 µM
IC50 [8]: > 100 µM
IC50 ± SD, L. (V.) braziliensis promastigotes [9]: ne^b

IC50 (T. cruzi trypomastigotes): 440 ± 39.1 µM
IC50 (T. cruzi trypomastigotes; Trypanosoma cruzi, 24 h): 440 µM
Compound: O=C(Cn1ccnc1[N+](=O)[O-])NCc1ccccc1 [Benznidazole]
IC50 at 48 h [7]: > 500 µM

IC50 [6, 10]: 12 to 16 µM
IC50 [6]: 12.2 ± 1.74 µM
IC50 (T. cruzi trypomastigotes; Trypanosoma cruzi, 24 h): 12.1 ± 2.97 µM
Compound: CC(NCCC(c1ccccc1)c1ccccc1)c1ccccc1 (stereo not drawn) [Fendiline, fendiline]
IC50 [4]: 16.1 ± 4.2 µM
IC50 [5]: 8.66 ± 1.27 µM
Selectivity Index (SI), L. (L.) infantum amastigotes [6]: 4.09
Selectivity Index (SI), T. cruzi trypomastigotes (T. cruzi trypomastigotes): 4.11
reduction of MitoTracker Red fluorescence levels relative to untreated parasites [1]: 18%
plasma membrane permeability (SYTOX Green fluorescence) [2]: no interference on the plasma membrane permeability
IC50 at 48 h [7]: 49.9 ± 8.16 µM
regulation of ROS content compared to untreated parasites ([3]; nitazoxanide 60 μg/mL): intense and significant (p < 0.05) upregulation of ROS content
IC50 [9]: 9.15 ± 0.78 µM

IC50 [6, 10]: 12 to 16 µM
IC50 [6]: 16.3 ± 4.45 µM
IC50 (T. cruzi trypomastigotes; Trypanosoma cruzi, 24 h): 10.4 ± 1.87 µM
Compound: Cc1cccc(C)c1NC(=O)CN1CCN(CCCC(c2ccc(F)cc2)c2ccc(F)cc2)CC1 [Lidoflazine, lidoflazine]
IC50 [4]: 17.7 ± 0.93 µM
IC50 [5]: 11.5 ± 1.49 µM
Selectivity Index (SI), L. (L.) infantum amastigotes [6]: 6.54
Selectivity Index (SI), T. cruzi trypomastigotes (T. cruzi trypomastigotes): 10.25
IC50 at 48 h [7]: 107 ± 58 µM
IC50 [9]: 14.5 ± 1.08 µM

IC50 ± SD, L. (L.) infantum amastigotes [6]: ne^b
IC50 ± SD, L. (L.) infantum amastigotes ([6]; listed as mibefradil): lack of activity
IC50 (T. cruzi trypomastigotes; Trypanosoma cruzi, 24 h): 2.99 ± 0.43 µM
Compound: COCC(=O)O[C@]1(CCN(C)CCCc2nc3ccccc3[nH]2)CCc2cc(F)ccc2[C@@H]1C(C)C [Mibefradil, mibefradil]
IC50 [4]: 3.6 ± 0.11 µM
IC50 [5]: 2.23 ± 0.42 µM
Selectivity Index (SI), T. cruzi trypomastigotes (T. cruzi trypomastigotes): 4.01
IC50 at 48 h [7]: 12 ± 1.03 µM
IC50 [9]: 2.75 ± 0.39 µM

Compound: CC(=O)Oc1ccccc1C(=O)Nc1ncc([N+](=O)[O-])s1 [Nitazoxanide]
effect on mitochondrial membrane potential (fluorescence intensity) ([1]; nitazoxanide 60 μg/mL, positive control): strong reduction of fluorescence intensity
regulation of ROS content compared to untreated parasites ([3]; nitazoxanide 60 μg/mL): significant upregulation of ROS

Compound: N=C(N)c1ccc(OCCCCCOc2ccc(C(=N)N)cc2)cc1 [Pentamidine]
IC50 [4]: 1.06 ± 0.12 µM
IC50 [5]: 1.14 ± 0.15 µM
IC50 at 48 h [7]: 23.5 ± 3.53 µM
IC50 [8]: 0.69 to 1.14 µM
IC50 [9]: 0.69 ± 0.04 µM

Compound: COC(=O)C1=C(C)NC(C)=C(C(=O)OC(C)C)C1c1cccc2nonc12 (stereo not drawn) [isradipine]
IC50 (T. cruzi epimastigotes): 20 µM

Compound: CCOC(=O)C1=C(C)NC(C)=C(C(=O)OCC)C1c1ccccc1/C=C/C(=O)OC(C)(C)C [lacidipine]
IC50 (T. cruzi epimastigotes): 33 µM

Compound: Triton X-100
plasma membrane permeability (SYTOX Green fluorescence) [2]: fully permeabilized parasites
